Results reported in patent US20050197350A1, “Novel quinoline, tetrahydroquinazoline, and pyrimidine derivatives and methods of treatment related to the use thereof” (TAISHO PHARMACEUTICAL CO., LTD., priority 2003, published 2005).

What follows are molecules tested on MCH receptors (assay: MCH receptor activity class (method not given)). Conditions: class by percent of control at 10^−7 M or IC50.

Compound	class
CCOc1cccc(C(=O)N[C@H]2CC[C@@H](Nc3ncc(C)c(N(C)C)n3)CC2)c1 [compound 2927, N-(cis-4-{[4-(dimethylamino)-5-methylpyrimidin-2-yl]amino}cyclohexyl)-3-ethoxybenzamide]	2 (Class 2: The value of percent of control at 10^−7 M was from 40% to 60% or the value of IC′50 was from 50 nM to 200 nM.)
Cc1cnc(N[C@H]2CC[C@@H](NC(=O)c3cccc(OC(C)C)c3)CC2)nc1N(C)C [compound 2928, N-(cis-4-{[4-(dimethylamino)-5-methylpyrimidin-2-yl]amino}cyclohexyl)-3-isopropoxybenzamide]	2 (Class 2: The value of percent of control at 10^−7 M was from 40% to 60% or the value of IC′50 was from 50 nM to 200 nM.)
CCOc1cc(OCC)cc(C(=O)N[C@H]2CC[C@@H](Nc3ncc(C)c(N(C)C)n3)CC2)c1 [compound 2929, N-(cis-4-{[4-(dimethylamino)-5-methylpyrimidin-2-yl]amino}cyclohexyl)-3,5-diethoxybenzamide]	1 (Class 1: The value of percent of control at 10^−7 M was less than 40% or the value of IC50 was less than 50 nM.)
Cc1cnc(N[C@H]2CC[C@@H](NC(=O)c3cc(F)cc(C(F)(F)F)c3)CC2)nc1N(C)C [compound 2930, N-(cis-4-{[4-(dimethylamino)-5-methylpyrimidin-2-yl]amino}cyclohexyl)-3-fluoro-5-(trifluoromethyl)benzamide]	1 (Class 1: The value of percent of control at 10^−7 M was less than 40% or the value of IC50 was less than 50 nM.)
Cc1cnc(N[C@H]2CC[C@@H](NC(=O)c3ccc(C(F)(F)F)c(F)c3)CC2)nc1N(C)C [compound 2931]	3 (Class 3 The value of percent of control at 10^−7 M was more than 60% or the value of IC50 was more than 200 nM.)
Cc1cnc(N[C@H]2CC[C@@H](NC(=O)c3ccc(F)c(Cl)c3)CC2)nc1N(C)C [compound 2932]	3 (Class 3 The value of percent of control at 10^−7 M was more than 60% or the value of IC50 was more than 200 nM.)
Cc1cnc(N[C@H]2CC[C@@H](NC(=O)c3cc(Br)cc(Br)c3)CC2)nc1N(C)C [compound 2933]	1 (Class 1: The value of percent of control at 10^−7 M was less than 40% or the value of IC50 was less than 50 nM.)
Cc1cc(C)cc(C(=O)N[C@H]2CC[C@@H](Nc3ncc(C)c(N(C)C)n3)CC2)c1 [compound 2934]	1 (Class 1: The value of percent of control at 10^−7 M was less than 40% or the value of IC50 was less than 50 nM.)
Cc1cc(C(=O)N[C@H]2CC[C@@H](Nc3ncc(C)c(N(C)C)n3)CC2)ccc1Cl [compound 2935]	1 (Class 1: The value of percent of control at 10^−7 M was less than 40% or the value of IC50 was less than 50 nM.)
COc1ccc(C(=O)N[C@H]2CC[C@@H](Nc3ncc(C)c(N(C)C)n3)CC2)cc1C(F)(F)F [compound 2936, N-(cis-4-{[4-(dimethylamino)-5-methylpyrimidin-2-yl]amino}cyclohexyl)-4-methoxy-3-(trifluoromethyl)benzamide]	1 (Class 1: The value of percent of control at 10^−7 M was less than 40% or the value of IC50 was less than 50 nM.)
Cc1cccc(C(=O)N[C@H]2CC[C@@H](Nc3ncc(C)c(N(C)C)n3)CC2)c1 [compound 2937, N-(cis-4-{[4-(dimethylamino)-5-methylpyrimidin-2-yl]amino}cyclohexyl)-3-methylbenzamide]	1 (Class 1: The value of percent of control at 10^−7 M was less than 40% or the value of IC50 was less than 50 nM.)
COc1cccc(C(=O)N[C@H]2CC[C@@H](Nc3ncc(C)c(N(C)C)n3)CC2)c1 [compound 2938, N-(cis-4-{[4-(dimethylamino)-5-methylpyrimidin-2-yl]amino}cyclohexyl)-3-methoxybenzamide]	1 (Class 1: The value of percent of control at 10^−7 M was less than 40% or the value of IC50 was less than 50 nM.)
Cc1ccc(C(=O)N[C@H]2CC[C@@H](Nc3ncc(C)c(N(C)C)n3)CC2)cc1 [compound 2939, N-(cis-4-{[4-(dimethylamino)-5-methylpyrimidin-2-yl]amino}cyclohexyl)-4-methylbenzamide]	1 (Class 1: The value of percent of control at 10^−7 M was less than 40% or the value of IC50 was less than 50 nM.)
Cc1cnc(N[C@H]2CC[C@@H](NC(=O)c3cccc(Cl)c3)CC2)nc1N(C)C [compound 2940, 3-chloro-N-(cis-4-{[4-(dimethylamino)-5-methylpyrimidin-2-yl]amino}cyclohexyl)benzamide]	1 (Class 1: The value of percent of control at 10^−7 M was less than 40% or the value of IC50 was less than 50 nM.)
Cc1cnc(N[C@H]2CC[C@@H](NC(=O)CN(C)c3cccc(Cl)c3)CC2)nc1N(C)C [compound 2941]	1 (Class 1: The value of percent of control at 10^−7 M was less than 40% or the value of IC50 was less than 50 nM.)
Cc1cccc(N(C)CC(=O)N[C@H]2CC[C@@H](Nc3ncc(C)c(N(C)C)n3)CC2)c1 [compound 2942]	1 (Class 1: The value of percent of control at 10^−7 M was less than 40% or the value of IC50 was less than 50 nM.)
Cc1cnc(N[C@H]2CC[C@@H](NC(=O)CN(C)c3cccc(F)c3)CC2)nc1N(C)C [compound 2943]	1 (Class 1: The value of percent of control at 10^−7 M was less than 40% or the value of IC50 was less than 50 nM.)

Compound	class
Cc1cnc(N[C@H]2CC[C@@H](NC(=O)CN(C)c3ccc(F)cc3)CC2)nc1N(C)C [compound 2944]	1 (Class 1: The value of percent of control at 10^−7 M was less than 40% or the value of IC50 was less than 50 nM.)
Cc1cnc(N[C@H]2CC[C@@H](NC(=O)CN(C)c3ccc(Cl)cc3)CC2)nc1N(C)C [compound 2945]	1 (Class 1: The value of percent of control at 10^−7 M was less than 40% or the value of IC50 was less than 50 nM.)
Cc1cnc(N[C@H]2CC[C@@H](NC(=O)CN(C)c3ccc(F)c(F)c3)CC2)nc1N(C)C [compound 2946]	1 (Class 1: The value of percent of control at 10^−7 M was less than 40% or the value of IC50 was less than 50 nM.)
COc1cccc(N(C)CC(=O)N[C@H]2CC[C@@H](Nc3ncc(C)c(N(C)C)n3)CC2)c1 [compound 2947]	1 (Class 1: The value of percent of control at 10^−7 M was less than 40% or the value of IC50 was less than 50 nM.)
COc1ccc(N(C)CC(=O)N[C@H]2CC[C@@H](Nc3ncc(C)c(N(C)C)n3)CC2)cc1 [compound 2948]	2 (Class 2: The value of percent of control at 10^−7 M was from 40% to 60% or the value of IC′50 was from 50 nM to 200 nM.)
Cc1cc(N(C)C)nc(N[C@H]2CC[C@@H](NC(=O)C(C)(C)c3ccc(Cl)cc3)CC2)n1 [compound 2949, 2-(4-chlorophenyl)-N-(cis-4-{[4-(dimethylamino)-6-methylpyrimidin-2-yl]amino}cyclohexyl)-2-methylpropanamide]	1 (Class 1: The value of percent of control at 10^−7 M was less than 40% or the value of IC50 was less than 50 nM.)
Cc1cc(N(C)C)nc(N[C@H]2CC[C@@H](NC(=O)Cc3cc(C(F)(F)F)cc(C(F)(F)F)c3)CC2)n1 [compound 2950, 2-[3,5-bis(trifluoromethyl)phenyl]-N-(cis-4-{[4-(dimethylamino)-6-methylpyrimidin-2-yl]amino}cyclohexyl)acetamide]	2 (Class 2: The value of percent of control at 10^−7 M was from 40% to 60% or the value of IC′50 was from 50 nM to 200 nM.)
Cc1cc(N(C)C)nc(N[C@H]2CC[C@@H](NC(=O)c3ccccc3)CC2)n1 [compound 2951, N-(cis-4-{[4-(dimethylamino)-6-methylpyrimidin-2-yl]amino}cyclohexyl)benzamide]	3 (Class 3 The value of percent of control at 10^−7 M was more than 60% or the value of IC50 was more than 200 nM.)
CCCCc1ccc(C(=O)N[C@H]2CC[C@@H](Nc3nc(C)cc(N(C)C)n3)CC2)cc1 [compound 2952]	3 (Class 3 The value of percent of control at 10^−7 M was more than 60% or the value of IC50 was more than 200 nM.)
Cc1cc(N(C)C)nc(N[C@H]2CC[C@@H](NC(=O)c3cccc(F)c3)CC2)n1 [compound 2953, N-(cis-4-{[4-(dimethylamino)-6-methylpyrimidin-2-yl]amino}cyclohexyl)-3-fluorobenzamide]	2 (Class 2: The value of percent of control at 10^−7 M was from 40% to 60% or the value of IC′50 was from 50 nM to 200 nM.)
Cc1cc(N(C)C)nc(N[C@H]2CC[C@@H](NC(=O)c3cccc(C(F)(F)F)c3)CC2)n1 [compound 2954, N-(cis-4-{[4-(dimethylamino)-6-methylpyrimidin-2-yl]amino}cyclohexyl)-3-(trifluoromethyl)benzamide]	1 (Class 1: The value of percent of control at 10^−7 M was less than 40% or the value of IC50 was less than 50 nM.)
COc1ccccc1C(=O)N[C@H]1CC[C@@H](Nc2nc(C)cc(N(C)C)n2)CC1 [compound 2955]	3 (Class 3 The value of percent of control at 10^−7 M was more than 60% or the value of IC50 was more than 200 nM.)
COc1ccc(C(=O)N[C@H]2CC[C@@H](Nc3nc(C)cc(N(C)C)n3)CC2)cc1 [compound 2956]	3 (Class 3 The value of percent of control at 10^−7 M was more than 60% or the value of IC50 was more than 200 nM.)
Cc1cc(N(C)C)nc(N[C@H]2CC[C@@H](NC(=O)c3cccc(C#N)c3)CC2)n1 [compound 2957, 3-cyano-N-(cis-4-{[4-(dimethylamino)-6-methylpyrimidin-2-yl]amino}cyclohexyl)benzamide]	1 (Class 1: The value of percent of control at 10^−7 M was less than 40% or the value of IC50 was less than 50 nM.)
Cc1cc(N(C)C)nc(N[C@H]2CC[C@@H](NC(=O)c3ccc(C#N)cc3)CC2)n1 [compound 2958, 4-cyano-N-(cis-4-{[4-(dimethylamino)-6-methylpyrimidin-2-yl]amino}cyclohexyl)benzamide]	1 (Class 1: The value of percent of control at 10^−7 M was less than 40% or the value of IC50 was less than 50 nM.)
COc1cc(OC)cc(C(=O)N[C@H]2CC[C@@H](Nc3nc(C)cc(N(C)C)n3)CC2)c1 [compound 2959, N-(cis-4-{[4-(dimethylamino)-6-methylpyrimidin-2-yl]amino}cyclohexyl)-3,5-dimethoxybenzamide]	1 (Class 1: The value of percent of control at 10^−7 M was less than 40% or the value of IC50 was less than 50 nM.)
